Measured values published in PubChem BioAssay AID1259407 (Chemical Carcinogenesis Research Information System (CCRIS), 2018).
Activity calls are given as the source filed them. No rule for the calls is given here.

System: CCRIS mutagenicity, Ames/micronucleus/aberration tests
Assay: CCRIS mutagenicity studies
[1] = Test System: AMES SALMONELLA TYPHIMURIUM, Strain/Indicator: TA98, Metabolic Activation: NONE, Method: STANDARD PLATE
[2] = Test System: AMES SALMONELLA TYPHIMURIUM, Strain/Indicator: TA100, Metabolic Activation: NONE, Method: STANDARD PLATE
[3] = Test System: AMES SALMONELLA TYPHIMURIUM, Strain/Indicator: TA1535, Metabolic Activation: NONE, Method: STANDARD PLATE
[4] = Test System: AMES SALMONELLA TYPHIMURIUM, Strain/Indicator: TA1537, Metabolic Activation: NONE, Method: STANDARD PLATE
[5] = Test System: AMES SALMONELLA TYPHIMURIUM, Strain/Indicator: TA98, Metabolic Activation: NONE, Method: PREINCUBATION
[6] = Test System: AMES SALMONELLA TYPHIMURIUM, Strain/Indicator: TA100, Metabolic Activation: NONE, Method: PREINCUBATION

Measured: mutagenic call

CC(=O)Nc1ccc(N/N=C2/C(=O)c3ccc(NC(=O)Nc4ccc5c(c4)C=C(S(=O)(=O)O)/C(=N/Nc4ccccc4)C5=O)cc3C=C2S(=O)(=O)O)cc1
active: Test System: Ames Salmonella typhimurium, Strain/Indicator: TA98, Metabolic Activation: None, Method: Preincubation active; positive

COC(=O)c1cc(OC)c2c(c1-c1c(C(=O)OC)cc(OC)c3c1OCO3)OCO2
inactive: [1] inactive; negative | Test System: AMES SALMONELLA TYPHIMURIUM, Strain/Indicator: TA98, Metabolic Activation: S-9, Method: STANDARD PLATE inactive; negative | [2] inactive; negative | Test System: AMES SALMONELLA TYPHIMURIUM, Strain/Indicator: TA100, Metabolic Activation: S-9, Method: STANDARD PLATE inactive; negative | [3] inactive; negative | Test System: AMES SALMONELLA TYPHIMURIUM, Strain/Indicator: TA1535, Metabolic Activation: S-9, Method: STANDARD PLATE inactive; negative | [4] inactive; negative | Test System: AMES SALMONELLA TYPHIMURIUM, Strain/Indicator: TA1537, Metabolic Activation: S-9, Method: STANDARD PLATE inactive; negative

[N-]=[N+]=Nc1ccc2c(Nc3ccc(NS(=O)(=O)CCCN)cc3)c3cc(N=[N+]=[N-])ccc3nc2c1
active: [4] active; positive

C=C[Si](C)(C)N[Si](C)(C)C=C
inactive: Test System: AMES SALMONELLA TYPHIMURIUM, Strain/Indicator: TA98, Metabolic Activation: HAMSTER, LIVER, S-9, AROCLOR 1254 (10%), Method: STANDARD PLATE inactive; negative | [1] inactive; negative | Test System: AMES SALMONELLA TYPHIMURIUM, Strain/Indicator: TA98, Metabolic Activation: RAT, LIVER, S-9, AROCLOR 1254 (10%), Method: STANDARD PLATE inactive; negative | Test System: AMES SALMONELLA TYPHIMURIUM, Strain/Indicator: TA100, Metabolic Activation: HAMSTER, LIVER, S-9, AROCLOR 1254 (10%), Method: STANDARD PLATE inactive; negative | [2] inactive; negative | Test System: AMES SALMONELLA TYPHIMURIUM, Strain/Indicator: TA100, Metabolic Activation: RAT, LIVER, S-9, AROCLOR 1254 (10%), Method: STANDARD PLATE inactive; negative | Test System: AMES SALMONELLA TYPHIMURIUM, Strain/Indicator: TA1535, Metabolic Activation: HAMSTER, LIVER, S-9, AROCLOR 1254 (10%), Method: STANDARD PLATE inactive; negative | [3] inactive; negative | Test System: AMES SALMONELLA TYPHIMURIUM, Strain/Indicator: TA1535, Metabolic Activation: RAT, LIVER, S-9, AROCLOR 1254 (10%), Method: STANDARD PLATE inactive; negative | Test System: AMES SALMONELLA TYPHIMURIUM, Strain/Indicator: TA1537, Metabolic Activation: HAMSTER, LIVER, S-9, AROCLOR 1254 (10%), Method: STANDARD PLATE inactive; negative | [4] inactive; negative | Test System: AMES SALMONELLA TYPHIMURIUM, Strain/Indicator: TA1537, Metabolic Activation: RAT, LIVER, S-9, AROCLOR 1254 (10%), Method: STANDARD PLATE inactive; negative | Test System: AMES SALMONELLA TYPHIMURIUM, Strain/Indicator: TA1538, Metabolic Activation: HAMSTER, LIVER, S-9, AROCLOR 1254 (10%), Method: STANDARD PLATE inactive; negative | Test System: AMES SALMONELLA TYPHIMURIUM, Strain/Indicator: TA1538, Metabolic Activation: NONE, Method: STANDARD PLATE inactive; negative | Test System: AMES SALMONELLA TYPHIMURIUM, Strain/Indicator: TA1538, Metabolic Activation: RAT, LIVER, S-9, AROCLOR 1254 (10%), Method: STANDARD PLATE inactive; negative | Test System: MOUSE LYMPHOMA, Strain/Indicator: L5178Y (TK+/TK-), Metabolic Activation: NONE, Method: SUSPENSION/PLATE inactive; negative. reevaluation of results: negative | Test System: MOUSE LYMPHOMA, Strain/Indicator: L5178Y (TK+/TK-), Metabolic Activation: RAT, LIVER, S-9, AROCLOR 1254, Method: SUSPENSION/PLATE inactive; negative. reevaluation of results: negative

CN(C)CCNC(=O)c1cccc2nc(-c3ccccc3)oc12
inactive: [4] inactive; negative

COCCl
active: End Point: IN VITRO CHROMOSOMAL ABERRATIONS, Test System: CHL CELLS, Metabolic Activation: NONE active; positive (structural and ploidy changes) | End Point: IN VITRO CHROMOSOMAL ABERRATIONS, Test System: CHL CELLS, Metabolic Activation: RAT, LIVER, S-9, SODIUM PHENOBARBITAL AND 5,6-BENZOFLAVONE active; positive (structural changes)

O=C/C(=C(/Cl)C(=O)O)C(Cl)Cl
active: [5] active; positive | [1] active; positive | [6] active; positive | [2] active; positive | Test System: AMES SALMONELLA TYPHIMURIUM, Strain/Indicator: TA104, Metabolic Activation: NONE, Method: PREINCUBATION active; positive
inactive: Test System: AMES SALMONELLA TYPHIMURIUM, Strain/Indicator: TA97, Metabolic Activation: NONE, Method: STANDARD PLATE inactive; negative | Test System: AMES SALMONELLA TYPHIMURIUM, Strain/Indicator: TA97, Metabolic Activation: RAT, LIVER, S-9, PHENOBARBITAL, Method: STANDARD PLATE inactive; negative | Test System: AMES SALMONELLA TYPHIMURIUM, Strain/Indicator: TA98, Metabolic Activation: RAT, LIVER, S-9, PHENOBARBITAL, Method: STANDARD PLATE inactive; negative | Test System: AMES SALMONELLA TYPHIMURIUM, Strain/Indicator: TA100, Metabolic Activation: RAT, LIVER, S-9, PHENOBARBITAL, Method: STANDARD PLATE inactive; negative

O=[N+]([O-])c1ccc(/C=C/c2ccc([N+](=O)[O-])cc2S(=O)(=O)O)c(S(=O)(=O)O)c1
inactive: [5] inactive; negative | Test System: AMES SALMONELLA TYPHIMURIUM, Strain/Indicator: TA98, Metabolic Activation: RAT LIVER S-9, PHENOBARBITAL AND BETA-NAPHTHOFLAVONE, Method: PREINCUBATION inactive; negative | [6] inactive; negative | Test System: AMES SALMONELLA TYPHIMURIUM, Strain/Indicator: TA100, Metabolic Activation: RAT LIVER S-9, PHENOBARBITAL AND BETA-NAPHTHOFLAVONE, Method: PREINCUBATION inactive; negative | Test System: AMES SALMONELLA TYPHIMURIUM, Strain/Indicator: TA1535, Metabolic Activation: NONE, Method: PREINCUBATION inactive; negative | Test System: AMES SALMONELLA TYPHIMURIUM, Strain/Indicator: TA1535, Metabolic Activation: RAT LIVER S-9, PHENOBARBITAL AND BETA-NAPHTHOFLAVONE, Method: PREINCUBATION inactive; negative | Test System: AMES SALMONELLA TYPHIMURIUM, Strain/Indicator: TA1537, Metabolic Activation: NONE, Method: PREINCUBATION inactive; negative | Test System: AMES SALMONELLA TYPHIMURIUM, Strain/Indicator: TA1537, Metabolic Activation: RAT LIVER S-9, PHENOBARBITAL AND BETA-NAPHTHOFLAVONE, Method: PREINCUBATION inactive; negative | Test System: E.COLI, Strain/Indicator: WP2UVRA/PKM101, Metabolic Activation: NONE, Method: PREINCUBATION inactive; negative | Test System: E.COLI, Strain/Indicator: WP2UVRA/PKM101, Metabolic Activation: RAT LIVER S-9, PHENOBARBITAL AND BETA-NAPHTHOFLAVONE, Method: PREINCUBATION inactive; negative
